Measured values reported in patent US10590121B2, “Kinase inhibitors and methods for making and using” (Rigel Pharmaceuticals, Inc., priority 2017, dated 2020).

Assays:
[1] = system: LPS induced IL-23 (p19/p40) in DC cells differentiated from human PBMC; assay: IL23-p19 ELISA, dendritic cells (DC differentiated from human PBMC), IFNγ primed, LPS stimulated; assay type: cell-based; conditions: human PBMC-derived dendritic cells, 1 μg/ml LPS, 18 hours, 10 pt
Description: Compound Screening Using DC Cells
1. Differentiation of PBMC's to DC Cells:
Human PBMC cells (400 million) obtained from the vendor were transferred into a T-175 flask containing 15 ml RPMI media (10% FBS) and incubate for 2 hours at 37° C. After 2 hours, the media including floating cells was aspirated out carefully and 12 ml of fresh RPMI media (10% FBS) containing GMCSF (100 ng/ml) and IL4 (20 ng/ml) was added, and the flask was kept in a 37° C. incubator for 7 days.
After 3 days, fresh GMCSF (100 ng/ml) and IL4 (20 ng/ml) were added to the flask and the incubation continued. After 7 days, the fully differentiated cells were harvested by spinning down (1200 rpm/5 min) and aspirating the media. The cells were suspended in fresh RPMI media (10% FBS) containing 50 ng/ml IFNγ (1000 U/ml) and then plated (50K/well in 100 μl) onto a white clear bottom 96 well plate and left in a 37° C. incubator for 24 hours.
2. Addition of Compounds:
After 24 hours incubation, 100 μl of RPMI media was added containing 2× concentrated test compound per well to the above cell-culture media (final concentration becomes 1×) and the plates were pre-incubated for 1 hour at 37° C. before stimulating with LPS.
After 1 hour compound pre-incubation, 10 μl per well of 20× concentrated LPS solution in RPMI media was added to give a final concentration of 1 μg/ml. The mixture was shaken and incubated the plates at 37° C. for an additional 18 hours.
155 μl of the supernatant was harvested from each well carefully (without the tip touching the bottom of the well) and to the remaining 50 μl/well of the cell culture plate was added 50 μl of Cell Titer Glo reagent. The mixture was incubated for 1-2 minutes on a shaker and the plate was read for luminescence intensity to determine the compound cytotoxicity. The cell culture supernatant collected above was used to carry out IL23 ELISA (65 μl-Supernatant) and IL10 ELISA (90 μl-Supernatant) as described below.
Human IL-23 (p19/p40) ELISA Protocol (e-Biosciences)
To 10.5 ml PBS add 50 μl of anti-IL23 (p19) was added capture antibody (2.5 μg/ml). The mixture was mixed well and 100 μl of the coating solution was added to each well of the 96 well white plates from Pierce. The wells were covered and incubated overnight at 4° C.
The anti-IL23 (p19)-antibody-coated plates were washed 2× using TBST (use plate washer) and blocked using 200 μl of 0.5% Casein for 1.5-2 hours at room temperature with shaking.
The plates were washed 2× using TBST and the supernatant was transferred (65 μl/well) to the above pre-blocked/IL23 (p19)-antibody-coated 96 well plate, and incubated at room temperature for 1.5 hours with shaking.
The plates were washed 4× using TBST (plate washer) and 100 μl/well detection antibody solution prepared from 2 μl of biotin labeled anti-IL-12 (p40/p70) antibody in 11 ml 1% BSA/PBS solution (1-5000 dilution) was added. The plates were incubated for 1 hour with shaking at room temperature.
Again, the plates were washed 4× with TBST and 100 μl of HRP labeled Streptavidin (R&D Systems) solution (10 μl/10 ml 1% BSA solution) was added, and the plates were incubated at room temperature for another 45 minutes with shaking.
After 45 minutes, the plates were washed with TBST 4× and 100 ul/well Super Signal ELISA Pico Chemiluminescent Substrate from Pierce (3.5 ml A+3.5 ml B+3.5 ml MQ water) was added. The plates were shaken for 1-2 minutes then read on a plate reader.

[2] = system: LPS induced IL23p19 in THP-1 cells; assay: LPS Induced IL23p19 in THP-1 Cells (with IFNγ Primed) Assay; assay type: cell-based; conditions: Homo sapiens; THP-1 cells primed with IFNγ 50 ng/mL, 1 μg/mL LPS, 18 hours, 10 pt; read-out: IL23-p19 ELISA, THP1-IFNy, LPS, 10 pt EC50
Source text: LPS Induced IL23p19 in THP-1 Cells (with IFNγ Primed) Assay
THP-1 Cells (ATCC, Cat # TIB-202), Dimethyl Sulfoxide (DMSO) (Sigma-Aldrich, Cat # D2650), RPMI 1640 (Cellgro, Cat #10-040-CM), Fetal Bovine Serum (Sigma, Cat # F4135), Albumin From Bovine Serum (BSA) (Sigma-Aldrich, Cat # A7906), LPS (Serotype K-235, Sigma, Product Number L 2143), IFNγ (Peprotech, Cat #300-02), Capture antibody: Human IL-23p19 ELISA (e-Bioscience, Cat. #14-7238-85), Detection antibody: Primary Mouse Biotinylated anti-human IL-12 (p40/p70) (e-Bioscience, Cat. #13-7129-85), Secondary HRP-conjugated Streptavidin (R&D Systems, Cat # DY998), 1×PBST Washing Buffer (PBS-Tween tablet) (VWR International, Cat #80058-558), ELISA Blocking Buffer (PBS with 1% BSA), ELISA Dilution Buffer (PBS with 1% BSA), 384 Well Flat-Bottom, MaxiSorp Black Immuno Plates (Thermo Scientific, Cat #12-565-346), 384 Well Flat-Bottom, White Tissue Culture Plates (Thermo Scientific, Cat #12-565-343), Super Signal ELISA Pico Chemiluminescent Substrate (Thermo Scientific, Cat #37070), Cell Titer Glo reagent (Promega, Cat # G7573), Positive control, IKK2VI inhibitor (Calbiochem, Cat #401483), AquaMax 4000 plate washer (Molecular Devices), Luminometer, Wallac Victor2 1420 Multilabel Counter.
On day 1, 50K/well THP-1 cells were seeded and primed with IFNγ (50 ng/mL) in 384-well plates for about 18 hours in RPMI media with 10% FBS. On day 2, the compound was serially diluted in DMSO from 5 mM in 3-fold dilutions, and then diluted 1:125 in RPMI media with 10% FBS. 50 μL/well 2× compound was added to 50 μL/well THP-1 cells (with IFNγ primed) in duplicate in 384 well tissue culture plates. The cells were pre-incubated with compound for 1 hour at 37° C., 5% CO2 before addition of 10 μL/well 11×LPS to give a final concentration of 1 μg/mL LPS. Day 3, after stimulation for 18 hours at 37° C., 5% CO2, the assay plate was centrifuged and 70 μL/well supernatant was harvested. IL-23p19 protein in 70 μL/well of supernatant was measured by sandwich ELISA, and 25 μl/well Cell Titer Glo reagent was added to the remaining cells to measure compound toxicity.
Human IL-23p19 Sandwich ELISA:
Maxisorp immuno ELISA plates were pre-coated with 25 μL/well of anti-IL-23p19 capture antibody (2.5 ug/mL) in PBS overnight at room temperature. After washing with 1×PBST, the plates were blocked using 100 μL/well of 1% BSA in PBS for 2 hours at room temperature. The plates were washed three times with 1×PBST and 70 μL/well supernatant were added. The plates were incubated at room temperature for 2 hours with shaking and washed three times with 1×PBST. 25 μL/well of biotin labeled anti-IL-12 (p40/p70) detection antibody (100 ng/mL) in PBS with 1% BSA was added and the plates were incubated at room temperature for 2 hours with shaking. After washing three times with 1×PBST, 25 μL/well of streptavidin-HRP (1:200) in PBS with 1% BSA was added and the plates were incubated at room temperature for 20 minutes with shaking. The plates were washed three times with 1×PBST and 25 μL/well of Super Signal ELISA Pico Chemiluminescent Substrate were added. The plates were read with a luminometer, and the chemiluminescence values were entered into Athena (Rigel) for curve fitting, EC50 calculation, and database storage.

| SMILES | EC50 [2] | EC50 [1] |
| --- | --- | --- |
| CN1CCN(c2ccc(NC(=O)c3cccc(-c4cn[nH]c4)n3)c(N3CCCCC3)c2)CC1 [I-1, N-(4-(4-methylpiperazin-1-yl)-2-(piperidin-1-yl)phenyl)-6-(1H-pyrazol-4-yl)picolinamide] | 308 nM | 843 nM |
| CN1CCN(c2ccc(NC(=O)c3ccc(-c4cn[nH]c4)o3)c(N3CCCCC3)c2)CC1 [I-2, N-(4-(4-methylpiperazin-1-yl)-2-(piperidin-1-yl)phenyl)-5-(1H-pyrazol-4-yl)furan-2-carboxamide] | 36.8 nM | 120 nM |
| O=C(Nc1ccc(N2CCOCC2)cc1N1CCC(F)CC1)c1cccc(-c2cn[nH]c2)n1 [I-4, N-(2-(4-fluoropiperidin-1-yl)-4-morpholinophenyl)-6-(1H-pyrazol-4-yl)picolinamide] | 314 nM | 3600 nM |
| CN1CCN(c2ccc(NC(=O)c3csc(-c4cn[nH]c4)n3)c(N3CCC(F)CC3)c2)CC1 [I-9, N-(2-(4-fluoropiperidin-1-yl)-4-(4-methylpiperazin-1-yl)phenyl)-2-(1H-pyrazol-4-yl)thiazole-4-carboxamide] | 36 nM | 67.2 nM |
| O=C(Nc1ccc(N2CCOCC2)cc1N1CCC(O)CC1)c1cccc(-c2cn[nH]c2)n1 [I-10, N-(2-(4-hydroxypiperidin-1-yl)-4-morpholinophenyl)-6-(1H-pyrazol-4-yl)picolinamide] | 303 nM | 1740 nM |
| O=C(Nc1ccc(N2CCOCC2)cc1N1CCC(O)CC1)c1ccc(-c2cn[nH]c2)o1 [I-11, N-(2-(4-hydroxypiperidin-1-yl)-4-morpholinophenyl)-5-(1H-pyrazol-4-yl)furan-2-carboxamide] | 134 nM | 162 nM |
| O=C(Nc1ccc(N2CCOCC2)cc1N1CCOCC1)c1cccc(-c2cn[nH]c2)n1 [I-13, N-(2,4-dimorpholinophenyl)-6-(1H-pyrazol-4-yl)picolinamide] | 1730 nM | 14400 nM |
| O=C(Nc1ccc(N2CCOCC2)cc1N1CCOCC1)c1ccc(-c2cn[nH]c2)o1 [I-14, N-(2,4-dimorpholinophenyl)-5-(1H-pyrazol-4-yl)furan-2-carboxamide] | 178 nM | 1920 nM |
| O=C(Nc1ccc(N2CCOCC2)cc1N1CCC(F)(F)CC1)c1cccc(-c2cn[nH]c2)n1 [I-19, N-(2-(4,4-difluoropiperidin-1-yl)-4-morpholinophenyl)-6-(1H-pyrazol-4-yl)picolinamide] | 2520 nM |  |
| COc1ccc(N2CCOCC2)cc1NC(=O)c1ccc(-c2cn[nH]c2)o1 [I-40, N-(2-methoxy-5-morpholinophenyl)-5-(1H-pyrazol-4-yl)furan-2-carboxamide] | 3380 nM |  |
| O=C(Nc1cc(N2CCOCC2)ccc1N1CCCCC1)c1cccc(-c2cn[nH]c2)n1 [I-75, N-(5-morpholino-2-(piperidin-1-yl)phenyl)-6-(1H-pyrazol-4-yl)picolinamide] | 52800 nM |  |

Continued by falling EC50 [2], values first:

| EC50 [2] | SMILES | EC50 [1] |
| --- | --- | --- |
| 9780 nM | O=C(Nc1ccc(CCN2CCOCC2)cc1N1CCCCC1)c1ccc(-c2cn[nH]c2)o1 [I-55, N-(4-(2-morpholinoethyl)-2-(piperidin-1-yl)phenyl)-5-(1H-pyrazol-4-yl)furan-2-carboxamide] |  |
| 880 nM | CN1CCN(c2ccc(NC(=O)c3cccc(-c4cn[nH]c4)n3)c(N3CCC(F)CC3)c2)CC1 [I-7, N-(2-(4-fluoropiperidin-1-yl)-4-(4-methylpiperazin-1-yl)phenyl)-6-(1H-pyrazol-4-yl)picolinamide] | 689 nM |
| 145 nM | O=C(Nc1ccc(N2CCOCC2)cc1N1CCC(F)CC1)c1ccc(-c2cn[nH]c2)o1 [I-5, N-(2-(4-fluoropiperidin-1-yl)-4-morpholinophenyl)-5-(1H-pyrazol-4-yl)furan-2-carboxamide] | 182 nM |
| 84.1 nM | O=C(Nc1ccc(N2CCOCC2)cc1N1CCC(O)CC1)c1csc(-c2cn[nH]c2)n1 [I-12, N-(2-(4-hydroxypiperidin-1-yl)-4-morpholinophenyl)-2-(1H-pyrazol-4-yl)thiazole-4-carboxamide] | 60 nM |
| 76.4 nM | O=C(Nc1ccc(N2CCOCC2)cc1N1CCC(F)CC1)c1csc(-c2cn[nH]c2)n1 [I-6, N-(2-(4-fluoropiperidin-1-yl)-4-morpholinophenyl)-2-(1H-pyrazol-4-yl)thiazole-4-carboxamide] | 114 nM |
| 63.7 nM | CN1CCN(c2ccc(NC(=O)c3ccc(-c4cn[nH]c4)o3)c(N3CCC(F)CC3)c2)CC1 [I-8, N-(2-(4-fluoropiperidin-1-yl)-4-(4-methylpiperazin-1-yl)phenyl)-5-(1H-pyrazol-4-yl)furan-2-carboxamide] | 182 nM |
| 25.9 nM | CN1CCN(c2ccc(NC(=O)c3csc(-c4cn[nH]c4)n3)c(N3CCCCC3)c2)CC1 [I-3, N-(4-(4-methylpiperazin-1-yl)-2-(piperidin-1-yl)phenyl)-2-(1H-pyrazol-4-yl)thiazole-4-carboxamide] | 71.2 nM |
